Measured values taken from patent US12233041B2, “Disulfonate stilbenes for use in the treatment of proliferative diseases” (UNIVERSITÉ DE NANTES, priority 2018, dated 2025).
Where two headings read alike, the source gives them in different places.

Tests used:
DU-145 cell line = assay: Clonogenicity test, sensitizing effect with an antineoplastic drug; format: cell-based; details: Homo sapiens, DU-145, B-2 20 μM
Method: Clonogenicity tests are carried out against several model cell lines derived from cancer including prostate cancer (DU-145). Cells are exposed to an anti-cancer agent targeting DNA (cisplatin or camptothecin). Damaged cells are counted and seeded in the presence or in the absence of B-2 in triplicate culture plates. After about two weeks of incubation at 37° C. the number of clones formed is counted. Each cell capable of repairing its lesions will then form a clone. After counting, the percentage of survival will be calculated relative to the control condition for which it is considered that there is 100% survival.
The main interest of RAD51 protein inhibitors is the sensitization of chemo-resistant or radio-resistant cancerous cell lines. Clonogenicity evaluation was carried out on the DU-145 cell line treated with cisplatin treatment in the presence or in the absence of disulfonate stilbene B-2 (RAD51 protein inhibitor).
DU-145 cell line was treated with camptothecin in the presence or in the absence of disulfonate stilbene B-2 (RAD51 protein inhibitor) and the clonogenic cell survival was determined.

[1] = system: recombinant fibroblast line RG37; assay: Intracellular homologous recombination (HR), GFP reconstitution after I-SceI cleavage, flow cytometry; format: cell-based; details: RG37 cells, 72 h after pCMV-HA-I-SceI transfection; FIG. 3
Method: After transfection with the pCMV-HA-I-SceI plasmid and incubation for 72 h, the cells were collected in PBS and 50 mM EDTA, pelleted and fixed with 2% paraformaledhyde for 20 min. The percentage of GFP-expressing cells was scored by FACS analysis using Cytoflex (Beckman Coulter). At least 3 independent experiments were performed, and HA-I-SceI expression was verified each time by Western blot with rabbit anti-HA antibody (Abcam).
The recombinant fibroblast line RG37 is used to confirm in vitro results (Examples 2-5) in the cellular context. This cellar line comprises two non-functional GFP cassettes, one of which has a unique cleavage site inducible by transfection of a restriction enzyme. After cleavage, which is equivalent to a double-strand break (DSB) of the DNA, the homologous recombination (HR) leads to the reconstitution of a complete GFP cassette thus making the cell fluorescent. The rate of intracellular HR is then determined by measurement in flow cytometry so as to measure the level of HR in cells after treatment with compounds C-3, B-2 and X-2.

Rad51 = target: T1, Rad51 (Homo sapiens, UniProt Q06609); assay: DNA invasion by D-loop assay (strand exchange); format: biochemical; details: 0.5 μM Rad51, 1 μM 100-ssDNA, 37° C.; read-out: IC50 (RAD51 protein inhibition, D-loop formation)
T1 sequence (Q06609 1-339): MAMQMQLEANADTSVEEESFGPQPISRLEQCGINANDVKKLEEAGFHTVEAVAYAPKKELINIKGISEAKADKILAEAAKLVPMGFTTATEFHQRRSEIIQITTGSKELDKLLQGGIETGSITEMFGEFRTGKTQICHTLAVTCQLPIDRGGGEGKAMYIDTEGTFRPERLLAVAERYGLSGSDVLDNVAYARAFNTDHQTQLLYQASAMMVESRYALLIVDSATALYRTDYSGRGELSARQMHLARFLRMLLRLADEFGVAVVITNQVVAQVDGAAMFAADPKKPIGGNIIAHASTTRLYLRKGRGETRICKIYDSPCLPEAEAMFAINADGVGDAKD
Method: Labeled 100-ssDNA** (1 μM) was incubated with 0.5 μM Rad51 in presence or absence of the indicated amounts of the corresponding molecule in 10 μL of standard reaction buffer containing 20 mM Tris-HCl (pH 8), 1 mM ATP, 1 mM DTT, 1 mM CaCl2) at 37° C. for 20 min. The reaction was initiated by adding supercoiled pPB4.3 DNA (200 μM in bp). After incubation of 30 min at 37° C., the reactions were stopped and deproteinized by a stop solution (10 mM Tris-HCl pH 8, 10 mM MgCl2, 1% SDS, and 1 mg/mL proteinase K. The reaction mixtures were further incubated for 15 min at 37° C. After adding 5-fold loading dye (0.05% bromophenol blue, 8% glycerol, 1 mM EDTA), the reaction products were separated by electrophoresis on 1% agarose gel. The electrophoresis was carried out in 0.5×TAE buffer (20 mM Tris, 10 mM acetic acid and 1 mM EDTA) at 100 V for 2 h. The labeled products (100-ssDNA** and D-loop) were visualized and quantified by the detection of the IRD-700 dye with the 700 nm infrared fluorescent detection channel of an Odyssey Infrared Imager (LI-COR) (Normand, A. et al., Biochemical Pharmacology, October 2014, Vol. 91, No. 3, pp. 293-300).
The “D-loop” in vitro test allows the quantification of the formation of the strand exchange structure (D-loop) and thus the determination of the inhibitory power of a molecule during the strand exchange step of the recombinase mechanism. IC50 measuring the RAD51 protein inhibition in presence of compounds A-1 to A-5, […] and DIDS are then calculated.

N#Cc1ccc(/C=C/c2ccc(C#N)cc2S(=O)(=O)[O-])c(S(=O)(=O)[O-])c1.[Na+].[Na+] [B-2, Sodium (E)-6,6′-(ethene-1,2-diyl)bis(3-cyanobenzenesulfonate)]
percent decrease of IC50 at 20 µM (DU-145 cell line; read-out: decrease of growth inhibition IC50 for camptothecin in presence of B-2): ~90%
percent decrease of IC50 at 20 µM (DU-145 cell line; read-out: decrease of growth inhibition IC50 for cisplatin in presence of B-2): ~40%
intracellular HR inhibition [1]: significant inhibitory effect
IC50 (Rad51): 5 µM
